Series [1] has as its system HBV replication. To be noted: Figures 1 and 2, earlier inhibitors; cited from earlier work.
Series [2] concerns HepDES19 cells. Also noted: method as in PMID 28450058, PMID 28633989, PMID 29565562, PMID 30768944. The following applies: Figures 1 and 2, earlier inhibitors; cited from earlier work.
Series [3] concerns HBV replication. Nature of the series: qPCR HBV replication inhibition assay in HepDES19 cells. The series is classed as cell-based, Hepatitis B virus (HBV) genotype D. The following applies: Hepatitis B virus, 72 h, (+) DNA qPCR, read-out: EC50. On the procedure:
(§1) HepDES19 cells were incubated on collagen-coated plates at 37 °C with 5% CO2 and saturating humidity in Dulbecco’s modified Eagle’s medium (DMEM/F12) (Cytiva Life Sciences, Marlborough, MA, USA) supplemented with 10% fetal bovine serum (FBS), penicillin (100 IU/mL), and streptomycin (100 µg/mL). HepDES19 cells are HepG2 cells that carry a stably transfected HBV genotype D genome under the control of a tetracycline repressible promoter. Cells were maintained in the presence of 1 µg/mL tetracycline to repress the expression of the stably integrated HBV genome, and HBV replication was induced by the withdrawal of tetracycline from the culture medium.
HBV replication inhibition was measured in HepDES19 cells induced to replicate HBV by the removal of tetracycline using a strand-preferential quantitative PCR assay as previously described. Cells were seeded at 4 × 10^4 cells/well in 96-well plates for 48 h. Serially diluted compound was then added to cells at a final concentration of 1% DMSO for 72 h, after which the cells were lysed and qPCR was performed as described in Li et al.. EC50 values were calculated from the (+) DNA data with GraphPad Prism using the four-parameter log (inhibitor) versus response algorithm with the bottom value set to zero. Three or more replicate assays were performed on different days.
(In general: Quantitative PCR measures a nucleic acid by following its amplification.)

The next series in a line: MTS cytotoxicity assay. The series is classed as cell-based. The following applies: human, HepDES19 cells. Here is the method: as §1
(§2) Cell viability was assessed using the CellTiter 96^TM Aqueous Non-Radioactive Cell Proliferation assay (MTS) (Promega, Madison, WI, USA) as described previously. HepDES19 cells were seeded at 1 × 10^4 cells per well in 96-well, and compound was added after 48 h. Cells incubated with serially diluted compound (1% DMSO) for 72 h. Bac absorbance values were subtracted, and data were converted to percent cell viability. The cytotoxic concentration 50% (CC50) values were calculated with GraphPad Prism by using the four-parameter variable response log (inhibitor) versus response algorithm with the bottom value set to zero. Three or more replicate assays were performed on different days.
For orientation: Formazan colour is commonly taken as a measure of viable cells.

The nature of series [4]: Solubility limit assay (turbidity, DMEM-F12 + 10% FBS). The series is classed as physicochemical. To be noted: DMEM-F12 without phenol red with 10% FBS, plasma or biological fluid, kinetic from dmso stock; pH 7.4, DMEM-F12 with 10% FBS, 1% DMSO, upper limit 200 µM. On the procedure:
Compound solubility limits were tested in DMEM-F12 without phenol red (Gibco, Grand Island, NY, USA) supplemented with 10% FBS (pH 7.2–7.4) to mimic cell culture experiments, as we have performed previously. Compounds were serially diluted in buffer at pH 7.4 in 384-well, optically clear plates (upper limit 200 µM, DMSO 1%) and read on a plate reader at 620 nm. Compound concentration (µM) was plotted against optical density (OD) and a solubility limit was determined by identifying an inflection point where there was a significant increase in optical density due to increasing turbidity; the concentration of the compound at the inflection point was defined as the solubility limit. Two or more replicate assays were performed on different days for each compound.

A short description of series [5]: Parallel artificial membrane permeability assay. The following applies: PAMPA; for Papp interpretation (high/low permeability category) at 2 h, 200 µM: pH 7.4, pH 7.4; for Papp at 2 h, 200 µM: pH 7.4, pH 7.4, 200 μM, room temperature. Format: in vitro ADME. On the procedure: Apparent passive permeability (Papp) was assessed at pH 7.4 using a 96-well donor/acceptor cassette (Sigma Aldrich, Burlington, MA, USA), which mimics the apical and basolateral sides of the small intestine epithelium, as we have described previously. Briefly, an artificial membrane composed of 1% w/v lethicin/dodecane was added to the poly (vinylidene fluoride) (PVDF) membrane filter. Once dry, compounds (200 μM) were diluted in buffer at pH 7.4 and added to the donor side of the membrane, and the same pH buffer was added to the acceptor side. The cassette was assembled and incubated at room temperature with shaking at 250 rpm for 2 h, after which 100 μL of the acceptor well was retrieved and the experimental compound absorbance was read on a plate reader between 200 and 600 nm. Compound Papps (cm/s) values were determined by normalizing to the compound absorbance at equilibrium, incubation time, and membrane porosity Two or more replicate assays were conducted on different days.
Background: The PAMPA barrier holds no transporters, so it reflects passive diffusion.

The subject of series [6] is HepDES19 cells. Nature of the series: MTS cytotoxicity assay. Format: cell-based. The following applies: 72 h. On the procedure: as §1, §2

Read-outs that look alike come from different tables or passages of the source.

Usually EC50 stands for the concentration needed to bring the measured effect to its halfway point. In general, CC50 refers to the concentration at which the toxic effect on the cells reaches its halfway point. As for `COc1ccc(CON=C(C)c2c(C)cc(=O)n(O)c2O)cc1` [A24], the EC50 in the series on HBV replication [1] was 0.29 µM. Moreover, the CC50 in the series with HepDES19 cells [2] was 102 µM.
Usually solubility stands for how much of the substance goes into solution per volume. A word on the Papp: it is a coefficient for how fast a substance crosses the barrier. Broadly, the melting point is the temperature, or range, at which the solid turns liquid. Molecule `COC(=O)c1ccc(CON=C(C)c2c(C)cc(=O)n(O)c2O)c(C#N)c1` [Compound 44, 2′-Cyano-4′-((((1′-(1,2-dihydroxy-4-methyl-6-oxo-1,6-dihydropyridin-5-yl)ethylidene)amino)oxy)methyl)methyl benzoate] had a melting point of 115 °C. For the same molecule, the EC50 in the series with HBV replication [3] was 7.7 ± 1.4 µM. Besides, it took 91.9 ± 11.2 µM to reach half-maximal cytotoxicity in the series “MTS cytotoxicity assay” (CC50 at 72 h). The solubility in series [4] is greater than 200 µM. Also, in series [5], the Papp interpretation (high/low permeability category) at 2 h, 200 µM was greater than 1 ×10⁻⁶ cm/s and the apparent permeability coefficient (Papp) at 2 h, 200 µM was 5.42 ×10⁻⁶ cm/s.
Take `COC(=O)c1ccc(CON=C(C)c2c(C)cc(=O)n(O)c2O)c(F)c1` [Compound 45, Methyl 4-((((1-(1,2-dihydroxy-4-methyl-6-oxo-1,6-dihydropyridin-3-yl)ethylidene)amino)oxy)methyl)-3-fluorobenzoate]: the melting point was 130 °C (dec.). Also, the EC50 in the series with HBV replication [3] worked out at 3.2 ± 0.4 µM. This molecule registered a CC50 at 72 h in the series “MTS cytotoxicity assay” of 90.2 ± 13.8 µM. Further, the solubility in series [4] was greater than 200 µM. Besides, in series [5], the Papp interpretation (high/low permeability category) at 2 h, 200 µM is greater than 1 ×10⁻⁶ cm/s and the Papp at 2 h, 200 µM stood at 3.54 ×10⁻⁶ cm/s.
For `CC(=NOC(C)c1ccccc1)c1c(C)cc(=O)n(O)c1O` (stereo not drawn) [Compound 46, 1,6-Dihydroxy-4-methyl-5-(1-((1-phenylethoxy)imino)ethyl)pyridin-2(1H)-one], the melting point was 130 to 132 °C. For the same molecule, the EC50 in the series with HBV replication [3] was 3.1 ± 0.5 µM. The molecule also came in with a CC50 at 72 h in “MTS cytotoxicity assay” of 100 µM. In addition, in series [4], the solubility was greater than 200 µM. Further, in series [5], the Papp interpretation (high/low permeability category) at 2 h, 200 µM was greater than 1 ×10⁻⁶ cm/s and the Papp at 2 h, 200 µM came out at 3.19 ×10⁻⁶ cm/s.
Turning to `COC(=O)c1ccc(CON=C(C)c2c(C)cc(=O)n(O)c2O)cc1` [Compound 47, 4′-((((1′-(1,2-Dihydroxy-4-methyl-6-oxo-1,6-dihydropyridin-5-yl)ethylidene)amino)oxy)methyl)methyl benzoate], the melting point is 120 °C (dec.). The EC50 in the series with HBV replication [3] is 1.1 ± 0.4 µM. In “MTS cytotoxicity assay”, this molecule gave a CC50 at 72 h of 100 µM. In addition, the 50% cytotoxic concentration (CC50) result in the series with HepDES19 cells [6] is “minimally cytotoxic”. Further, the solubility in series [4] is greater than 200 µM. Further, in series [5], the Papp interpretation (high/low permeability category) at 2 h, 200 µM was greater than 1 ×10⁻⁶ cm/s and the Papp at 2 h, 200 µM amounted to 5.52 ×10⁻⁶ cm/s.
With `CC(=NOCc1ccc([N+](=O)[O-])cc1)c1c(C)cc(=O)n(O)c1O` [Compound 48, 1,6-Dihydroxy-4-methyl-5-(1-(((4-nitrobenzyl)oxy)imino)ethyl)pyridin-2(1H)-one], the melting point is 105 to 107 °C. Also, in the series with HBV replication [3], the EC50 is 1.1 ± 0.2 µM. In “MTS cytotoxicity assay”, this molecule yielded a CC50 at 72 h of 99.6 ± 0.6 µM. Besides, the CC50 entry with HepDES19 cells [6] was “minimally cytotoxic”. The solubility in series [4] is greater than 200 µM. In addition, in series [5], the Papp interpretation (high/low permeability category) at 2 h, 200 µM was greater than 1 ×10⁻⁶ cm/s and the Papp at 2 h, 200 µM was found to be 5.38 ×10⁻⁶ cm/s.
In the case of `CC(=NOC(CNC(=O)c1ccc2ccccc2n1)c1cc(F)cc(F)c1)c1c(C)cc(=O)n(O)c1O` (stereo not drawn) [Compound 49, N-(2-(3,5-Difluorophenyl)-2-(((1-(1,2-dihydroxy-4-methyl-6-oxo-1,6-dihydropyridin-3-yl)ethylidene)amino)oxy)ethyl)quinoline-2-carboxamide], the melting point is 108 to 110 °C (dec.). Also, the EC50 with HBV replication [3] is 3.5 ± 0.8 µM. This molecule showed a CC50 at 72 h in “MTS cytotoxicity assay” of 99.9 ± 0.2 µM. For the same molecule, the solubility in series [4] is greater than 200 µM. Further, in series [5], the Papp interpretation (high/low permeability category) at 2 h, 200 µM is greater than 1 ×10⁻⁶ cm/s and the Papp at 2 h, 200 µM amounted to 6.71 ×10⁻⁶ cm/s.
In the case of `CC(=NOC(CNC(=O)c1nccs1)c1cc(F)cc(F)c1)c1c(C)cc(=O)n(O)c1O` (stereo not drawn) [Compound 50, N-(2-(3,5-Difluorophenyl)-2-(((1-(1,2-dihydroxy-4-methyl-6-oxo-1,6-dihydropyridin-3-yl)ethylidene)amino)oxy)ethyl)thiazole-2-carboxamide], the melting point was 117 to 119 °C (dec.). Also, in the series with HBV replication [3], the EC50 was 4 ± 1.5 µM. For the same molecule, it took 100 µM to reach half-maximal cytotoxicity in “MTS cytotoxicity assay” (CC50 at 72 h). Besides, in series [4], the solubility was greater than 200 µM. Also, in series [5], the Papp interpretation (high/low permeability category) at 2 h, 200 µM is greater than 1 ×10⁻⁶ cm/s and the Papp at 2 h, 200 µM was 4.67 ×10⁻⁶ cm/s.
Regarding `O=C(Nc1ccc2c(c1)C(=O)N(O)C(=O)C2C(=O)NCc1ccc(F)cc1)c1ccccc1` (stereo not drawn) [HID], in the series with HBV replication [1], the EC50 is 1.4 µM. The CC50 in the series with HepDES19 cells [2] was 99 µM.
Turning to `NCc1ccc(-c2ccc(Cc3cc(=O)n(O)c4ncccc34)cc2)cc1` [HNO], the EC50 with HBV replication [1] is 3.4 µM. The CC50 in the series on HepDES19 cells [2] is 7.1 µM.
Consider `C/C(=N\c1cccc(Br)c1)c1c(C)cc(=O)n(O)c1O` [HPD imine], for which the EC50 in the series with HBV replication [1] is 1.1 µM. For the same molecule, the CC50 in the series with HepDES19 cells [2] was 62.3 µM.
As to `COC(=O)c1c2c(cc(O)c(=O)c1O)COC2=O` [a-HT], the EC50 with HBV replication [1] was 0.5 µM. Moreover, the CC50 with HepDES19 cells [2] was greater than 77 µM.

(Values after PMC11206691, “N-Hydroxypiridinedione: A Privileged Heterocycle for Targeting the HBV RNase H” (Molecules, 2024).)
